In US20230329304A1, “METABOLIC THERAPY OF CANCER” (AMINOVITA S.L., priority 2020, published 2023):

How the values were obtained:
4T1 cancer cells = assay: Survival of mice with triple negative breast cancer (4T1 cells, intravenous model); type: in vivo; settings: for mean survival (FIG. 4): 100,000 4T1 cells tail vein, treatment from day 8, diets 28 days, capecitabine 450 mg/kg/day oral cycles, cisplatin 5 mg/kg weekly x4 ip, control 26.1 days; for Survival improvement vs untreated mice (mean, days): Breast cancer, 4T1 cells, 100.000, tail vein injection (iv)
Description: (§1) All mice were purchased from Janvier Labs® (France). Male BALB/cAnNRJ mice were used for the renal cancer model (Renca cells, intraperitoneal model). Female BALB/cAnNRJ mice were used for the colon cancer models (CT26WT cells, intraperitoneal and intravenous models), and for the triple negative breast cancer model (4T1 cells, intravenous model). Female C57BL/6J mice were used for the lung cancer model (LLc1 cells, intravenous model) and for the melanoma model (B16-F10 cells, intravenous model). All mice were 12 weeks or older at the beginning of the experiments. Treatments started 8 days after the injection of the cancer cells for the 4T1 breast cancer model and for the Renca renal cancer model (when the number of injected cells was 100.000). Treatments started 7 days after the injection for the Renca cancer model when the number of inoculated cells was 150.000, and for the LLc1 lung cancer model. Treatments started 4 days after the injection in the CT26WT colon cancer models (intraperitoneal and intravenous) and in the B16-F10 melanoma model.
(§2) Murine cells (5th-7th passage) were cultured in 75-cm2 flask. When the cells were approximately 60-70% confluent, medium was removed and cells were washed twice with sterile PBS. Then, cells were incubated with trypsin/EDTA solution for 2-3 min at 37° C. to allow cells to have a rounded shape but without detaching. Next, trypsin/EDTA solution was aspirated, cells were resuspended in 5 mL sterile PBS and the cell suspension was pipetted up and down to break up any cell aggregate before adding 10% FBS supplemented medium. Then, a working cell suspension (between 5×10^5-25×10^6 cells/mL depending on cancer model) was prepared. This suspension was centrifuged (5 min, 250 g) at room temperature. Medium was removed and cells were resuspended in warm 2.5% FBS supplemented medium. The working cell suspension was aliquoted into 2 mL tubes and they were kept at 37° C. in a humidified atmosphere containing 5% CO2 until use. Several minutes before the injection, tubes were centrifuged at 300 g 4° C. for 3 min, medium was removed and cells were resuspended in sterile PBS. Cells were counted again. Finally, a 1-mL syringe (insulin type with a 29-G×½″ needle) was filled with 0.2 mL of the working cell suspension, which was injected in the peritoneal cavity or in the tail vein of the mice. After inoculating the last mice, the cells in the last tube were placed in a flask and monitored during several weeks under the microscope to ensure that all mice were inoculated with viable cells.
One day before the start of the treatments, mice were housed in individual cages to avoid cannibalism. Treatments started four, seven or eight days (depending on the model) after injecting the cancer cells. Most treatments with the artificial diets lasted at least 4 weeks. Treatment with the artificial diets simply consisted of replacing their normal diet with an artificial diet in which the levels of specific AAs and lipids were manipulated. Sunitinib, and capecitabine were administered daily in the diet. Cisplatin and the anti-PD1 antibody were injected intraperitoneally. Animals were monitored daily and body weights were determined periodically (at least three times per week). […] Post-mortem examination was carried out to confirm the cause of death and to observe the extent of the disease. Autopsies confirmed the presence of tumors in all euthanized mice. […]

CT26.WT cancer cells [1] = assay: Survival of mice with colon cancer (CT26.WT cells, intravenous model); type: in vivo, female BALB/cAnNRJ mice
Description: as §1, with “Treatments started 4 days after the injection in the CT26WT colon cancer models (intraperitoneal and intravenous) and in the B16-F10 melanoma model.” left out
(§3) Murine cells (5th-7th passage) were cultured in 75-cm2 flask. […] Cells were counted again. […] After inoculating the last mice, the cells in the last tube were placed in a flask and monitored during several weeks under the microscope to ensure that all mice were inoculated with viable cells.
(§4) One day before the start of the treatments, mice were housed in individual cages to avoid cannibalism. […] Animals were monitored daily and body weights were determined periodically (at least three times per week). […]

CT26.WT cancer cells [2] = assay: Survival of mice with colon cancer (CT26.WT cells, intraperitoneal model); type: in vivo, female BALB/cAnNRJ mice
Description: as §1
Murine cells (5th-7th passage) were cultured in 75-cm2 flask. When the cells were approximately 60-70% confluent, medium was removed and cells were washed twice with sterile PBS. Then, cells were incubated with trypsin/EDTA solution for 2-3 min at 37° C. to allow cells to have a rounded shape but without detaching. Next, trypsin/EDTA solution was aspirated, cells were resuspended in 5 mL sterile PBS and the cell suspension was pipetted up and down to break up any cell aggregate before adding 10% FBS supplemented medium. […] Cells were counted again. […] After inoculating the last mice, the cells in the last tube were placed in a flask and monitored during several weeks under the microscope to ensure that all mice were inoculated with viable cells.
as §4

B16-F10 cells = assay: Survival of mice with melanoma (B16-F10 cells, intravenous model); type: in vivo, female C57BL/6J mice; settings: B16-F10 cells, 500.000, tail vein injection (iv), C57BL/6J mice
Description: as §1, with “Treatments started 4 days after the injection in the CT26WT colon cancer models (intraperitoneal and intravenous) and in the B16-F10 melanoma model.” left out
as §3, §4

Renca cancer cells = assay: Survival of mice with renal cancer (Renca cells, intraperitoneal model); type: in vivo, male BALB/cAnNRJ mice
Description: as §1, §2, §4

Row | SMILES | premature deaths by drug toxicity (4T1 cancer cells; 4T1 iv model, capecitabine 450 mg/kg/day, 7-day treatment+7-day rest, oral, n=10) | mean survival (FIG. 4) (4T1 cancer cells) | Survival improvement vs untreated mice (mean, days) (4T1 cancer cells) | mean survival (FIG. 3) (CT26.WT cancer cells [1]; 100,000 CT26.WT cells tail vein, treatment from day 4, P6 28 days, capecitabine 450 mg/kg/day oral cycles, control 33.3 days) | Survival improvement vs untreated mice (mean, days) (CT26.WT cancer cells [1]; Colon cancer, CT26.WT cells, 10.000, tail vein injection (iv)) | mean survival (FIG. 2) (CT26.WT cancer cells [2]; 100,000 CT26.WT cells ip, treatment from day 4, P10 6 weeks, capecitabine 450 mg/kg/day oral cycles, control 24.6 days) | days lived more than untreated mice (CT26.WT cancer cells [2]; 100,000 CT26.WT cells ip, treatment from day 4, diets 6 weeks, capecitabine 450 mg/kg/day, 7-day treatment+7-day rest, oral) | Survival improvement vs untreated mice (mean, days) (CT26.WT cancer cells [2]; Colon cancer, CT26.WT cells, 10.000, intraperitoneal injection (ip)) | Survival improvement vs untreated mice (mean, days) (B16-F10 cells) | mean survival (FIG. 1) (Renca cancer cells; 100,000 Renca cells ip, treatment from day 8, P2 28 days, sunitinib 60 mg/kg/day 28 days oral, anti-PD1 250 μg ip x4, control 35.2 days) | Mean survival (Renca cancer cells; 150,000 Renca cells ip, treatment from day 7, 28 days, 10 days normal diet, 21 more days, sunitinib 60 mg/kg/day oral, control 30.75) | Survival improvement vs. Control (Renca cancer cells; 150,000 Renca cells ip, treatment from day 7, Table 4 experiment) | Survival improvement vs untreated mice (mean, days) (Renca cancer cells; Renal cancer, renca cells, 100.000, intraperitoneal injection (ip))
1 | CCCCCOC(=O)Nc1nc(=O)n([C@@H]2O[C@H](C)[C@@H](O)[C@H]2O)cc1F [Capecitabine] | two mice died prematurely by excessive drug toxicity | 24.2 days | +3.7 days | 36.7 days | 0.0 days | 27.7 days | 4.5 days | +7.6 days | – | – | – | – | –
2 | N.N.[Cl][Pt][Cl] [Cisplatin] | – | 33.6 days | +4.7 days | – | – | – | – | – | +3.5 days | – | – | – | –
3 | CCN(CC)CCNC(=O)c1c(C)[nH]c(/C=C2\C(=O)Nc3ccc(F)cc32)c1C [Sunitinib, Sunitinib malate] | – | – | – | – | – | – | – | – | – | 62.2 days | 48 days | 17.25 days | +20.4 days
